Data taken from EP2119770B1, “Production of alpha-oxyfunctionalized carbonyl compounds” (priority 2008, dated 2009).

Assays:
Gox1615 = target: T1, Gox1615 (Gluconobacter oxydans, UniProt Q5FQJ0); test: Enzyme activity assay (rate of NAD(P)H decrease at 340 nm), Gox1615; format: biochemical; conditions: Tab. 5, Gox1615; cofactor NADPH; 10 mM substrate, pH 7.0, 30 °C
T1 sequence (Q5FQJ0 1-332): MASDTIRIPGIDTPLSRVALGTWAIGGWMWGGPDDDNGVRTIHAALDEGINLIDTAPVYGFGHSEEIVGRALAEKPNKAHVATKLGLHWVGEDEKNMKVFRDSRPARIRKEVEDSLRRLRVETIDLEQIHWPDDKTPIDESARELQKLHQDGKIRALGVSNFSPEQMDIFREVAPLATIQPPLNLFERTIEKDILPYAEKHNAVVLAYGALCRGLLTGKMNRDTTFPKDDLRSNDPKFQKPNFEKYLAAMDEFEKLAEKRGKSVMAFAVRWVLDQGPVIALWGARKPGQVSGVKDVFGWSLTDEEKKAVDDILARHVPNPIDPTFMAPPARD
Experimental: (§1) Measurment of enzyme activity: NADPH-dependent alpha-ketocarbonyl reductases were assayed by a routine method used for NAD(P)-linked enzymes by recording the rate of decrease of NADPH at 340 nm (ε = 6.22 mM^-1 x cm^-1)) with substrates at 30 °C. The reaction mixture (1 ml) for reduction of alpha-ketocarbonyl substrates contained 10 mM substrate, 40 mM potassium phosphate buffer pH 7.0, 0.025 mM NAD(P)H , and the enzyme. Reactions were induced by addition of enzyme or substrate. One unit of enzyme activity was defined as the amount of enzyme catalyzing the conversion of 1 µmol of pyridine nucleotide per min at 30 °C.
(§2) NADPH-dependent α-ketocarbonyl reductases were assayed by a routine method used for NAD(P)-linked enzymes by recording the rate of decrease of NADPH at 340 nm (ε = 6.22 mM^-1.cm^-1) with substrates at 30 °C. The reaction mixture (1 ml) for reduction of alpha-ketocarbonyl substrates contained 10 mM substrate, 40 mM potassium phosphate buffer pH 7.0, 0.025 mM NADPH , and the enzyme. Reactions were induced by addition of enzyme or substrate. One unit of enzyme activity was defined as the amount of enzyme catalyzing the conversion of 1 µmol of pyridine nucleotide per min at 30 °C.
(§3) For each enzyme (Gox0313, Gox0502, Gox0644, Gox0646, Gox1615, Gox2107, and Gox2684 respectively), fresh enzyme preparations were used to validate the substrate spectrum and the kinetic activity. […] Purified NAD(P)-dependent oxidoreductases were assayed at 30 °C by a routine method used for NAD(P)-linked enzymes by recording the rate of decrease of NAD(P)H at 340 nm (ε = […]) with substrates capable of reduction reactions. The standard reaction mixture (1 ml) for the reduction reactions of substrates contained 10 mM substrate, 40 mM potassium phosphate buffer (K-phosphate buffer) pH 7.0, 0.05 mM NAD(P)H, and the enzyme unless otherwise noted. Reactions were induced by addition of enzyme or substrate. One unit of enzyme activity was defined as the amount of enzyme catalyzing the conversion of 1 µmol of pyridine nucleotide per min at 30 °C. Measurement of the protein content was performed by the method of Bradford in Anal. Biochem. 72:248-254 (1976). Table 3: Summary of enzymatic activities with α-diketones, α-ketoaldehydes and /or α-ketoesters

Gox0502 [1] = target: T2, Gox0502 (Gluconobacter oxydans, UniProt Q5FTL6); test: Enzyme kinetics (Lineweaver-Burk plots), Gox0502; conditions: NADPH-dependent reduction
T2 sequence (Q5FTL6 1-361): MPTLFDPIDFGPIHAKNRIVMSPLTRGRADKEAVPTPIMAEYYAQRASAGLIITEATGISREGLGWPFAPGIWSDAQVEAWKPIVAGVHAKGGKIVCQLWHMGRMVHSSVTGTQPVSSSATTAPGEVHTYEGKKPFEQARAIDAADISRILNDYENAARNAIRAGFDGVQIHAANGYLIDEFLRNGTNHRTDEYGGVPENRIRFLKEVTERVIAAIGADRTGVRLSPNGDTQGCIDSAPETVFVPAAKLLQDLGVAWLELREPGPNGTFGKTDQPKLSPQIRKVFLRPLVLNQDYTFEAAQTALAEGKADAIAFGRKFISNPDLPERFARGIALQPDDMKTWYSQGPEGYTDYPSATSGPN

Gox0313 = target: T3, Gox0313 (Gluconobacter oxydans, UniProt Q5FU50); test: Enzyme activity assay (rate of NAD(P)H decrease at 340 nm), Gox0313; format: biochemical; conditions: Tab. 6, Gox0313; substrate reduction, cofactor NADH; 10 mM substrate, pH 7.0, 30 °C
T3 sequence (Q5FU50 1-343): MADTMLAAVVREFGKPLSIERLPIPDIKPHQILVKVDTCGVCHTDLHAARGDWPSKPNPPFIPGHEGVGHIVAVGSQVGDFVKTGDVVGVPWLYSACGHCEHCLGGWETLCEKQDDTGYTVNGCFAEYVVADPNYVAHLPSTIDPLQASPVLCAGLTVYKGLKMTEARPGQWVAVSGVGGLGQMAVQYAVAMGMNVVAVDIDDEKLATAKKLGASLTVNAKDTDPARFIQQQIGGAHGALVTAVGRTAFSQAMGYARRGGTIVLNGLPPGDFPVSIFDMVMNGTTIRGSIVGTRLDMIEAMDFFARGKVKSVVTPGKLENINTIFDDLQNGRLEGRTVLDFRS
Experimental: as §1, §2, §3

Gox0502 [2] = target: T2, Gox0502; test: Enzyme activity assay (rate of NAD(P)H decrease at 340 nm), Gox0502; format: biochemical; design: Strep-tag II (N); made in house; host or cells: E. coli BL21 or E. coli DH5α (pASK-IBA5); conditions: Tab. 7, Gox0502; cofactor NADPH; 10 mM substrate, pH 7.0, 30 °C
Experimental: as §1, §2, §3

Gox2107 [3] = target: T4, Gox2107 (Gluconobacter oxydans, UniProt Q5FP53); test: Enzyme activity assay (rate of NAD(P)H decrease at 340 nm), Gox2107; format: biochemical
Experimental: as §1, §2, §3

Gox2684 = target: T5, Gox2684 (Gluconobacter oxydans, UniProt Q5HXK5); test: Enzyme activity assay (rate of NAD(P)H decrease at 340 nm), Gox2684; format: biochemical; conditions: Tab. 8, GOX2684; cofactor NADPH; 10 mM substrate, pH 7.0, 30 °C
T5 sequence (Q5HXK5 1-357): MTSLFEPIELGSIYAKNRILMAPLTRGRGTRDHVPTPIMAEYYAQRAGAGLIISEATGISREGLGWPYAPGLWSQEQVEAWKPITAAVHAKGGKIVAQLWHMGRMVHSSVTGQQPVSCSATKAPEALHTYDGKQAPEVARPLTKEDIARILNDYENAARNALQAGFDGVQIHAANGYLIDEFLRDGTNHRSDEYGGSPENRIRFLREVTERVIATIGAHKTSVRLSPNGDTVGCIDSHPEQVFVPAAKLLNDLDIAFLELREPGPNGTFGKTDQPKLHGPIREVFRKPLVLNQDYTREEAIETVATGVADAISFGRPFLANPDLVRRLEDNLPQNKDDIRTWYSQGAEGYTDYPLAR
Experimental: as §1, §2, §3

Gox2107 [4] = target: T4, Gox2107; test: Enzyme kinetics (Lineweaver-Burk plots), Gox2107; format: biochemical; conditions: NADPH-dependent reduction
Experimental: Determination of pH and temperature optima and enzyme kinetics: The optimum pH for enzyme activities was determined by a modified method of Salusjärvi, T. et al., Appl. Microbiol. Biotechnol. 65:306-314 (2004) using the following buffer system (50 mM final concentration each): sodium acetate pH 4.5 - 6.5, potassium phosphate pH 6.5 - 8.0, Tris-HCl pH 8.0 - 10. Temperature optima for the biocatalysts were determined under standard reaction conditions at temperatures ranging from 20 - 80 °C. The Michaelis constant (Km) for the proteins was determined from purified enzyme by Lineweaver-Burk plots. Assays were performed at optimum pH for each enzyme and at 30 °C using the top substrate and a targeted substrate. The Km for each substrate was calculated using concentrations of 0.0025 to 10 mM, and the Km NAD(P)H and NAD(P) was calculated using concentrations of 0.01 to 0.5 mM
The Michaelis constants were determined from purified enzyme by Lineweaver-Burk plots. The Km and Vmax values for the substrates were calculated using concentrations of 0.025 to 10 mM, The optimal pH values and temperatures for enzyme activities are also shown in Tab. 11. Tab. 11: Summary of kinetic parameters

Gox1122 = target: T6, Gox1122 (Gluconobacter oxydans, UniProt Q5FRV6); conditions: using NADPH, pH range of 4-10
T6 sequence (Q5FRV6 1-463): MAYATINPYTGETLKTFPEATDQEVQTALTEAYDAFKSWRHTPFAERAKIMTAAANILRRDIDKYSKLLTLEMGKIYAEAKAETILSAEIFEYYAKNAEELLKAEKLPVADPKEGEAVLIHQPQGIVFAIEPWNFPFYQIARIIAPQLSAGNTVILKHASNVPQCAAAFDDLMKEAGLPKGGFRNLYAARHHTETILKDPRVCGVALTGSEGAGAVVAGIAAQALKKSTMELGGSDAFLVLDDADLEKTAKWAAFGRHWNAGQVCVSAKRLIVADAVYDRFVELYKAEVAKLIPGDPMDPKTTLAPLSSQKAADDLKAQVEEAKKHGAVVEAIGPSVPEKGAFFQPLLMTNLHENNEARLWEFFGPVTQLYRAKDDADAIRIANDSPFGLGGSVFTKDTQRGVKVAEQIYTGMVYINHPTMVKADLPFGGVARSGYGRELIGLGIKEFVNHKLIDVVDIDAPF
Excerpt: The enzyme is used in a combined enzymatic reaction between the NADPH-dependent reductases (see above) that form α-hydroxy carbonyl compounds.

SMILES | Specific Activity (Gox1615) | Vmax (Gox0502 [1]) | Specific Activity (Gox0313) | Specific Activity (Gox0502 [2]) | activities (Gox2107 [3]; Gox2107, reduction with NADPH) | Specific Activity (Gox2107 [3]; Tab. 7, Gox2107, cofactor NADPH, 10 mM substrate, pH 7.0, 30 °C) | Specific Activities (Gox2684) | Vmax (Gox2107 [4]) | reverse reduction reaction (result in words) (Gox1122)
C=CC(C)=O [3-buten-2-one] | 0.7 U/mg | 21 U/mg protein | 1.9 U/mg | 21 U/mg | 119 µmol/mg/min | 120 U/mg | 8.8 U/mg | 119 U/mg protein | –
CC(=O)O [acetic acid] | – | – | – | – | – | – | – | – | No reverse reduction reaction
